In the test the target is T1, carbonic anhydrase II (CAII) (Homo sapiens, UniProt P00918).
T1 construct: gene CA2
In words: Wilbur-Anderson electrometric CO2 hydration assay with recombinant human CAII. The test is classed as biochemical.

This note sets out measurements from PMC7699199, “Identification and Validation of Carbonic Anhydrase II as the First Target of the Anti-Inflammatory Drug Actarit” (Biomolecules, 2020).

Molecules are shown by their SMILES.

On to `CC(=O)Nc1ccc(CC(=O)O)cc1` [actarit], for which the IC50 was 422 nM.
